Read-outs that look alike come from different tables or passages of the source. Where only a bound is given, the exact number is not on record here.

This passage reports IC50 results from patent US20230416205A1, “COMPOUNDS, COMPOSITIONS, AND METHODS” (Denali Therapeutics Inc, priority 2020, published 2023).

The subject of this test is NLRP3. The test is described as follows: IL-1β secretion assay in PMA-differentiated, LPS/nigericin-stimulated THP-1 cells (384-well, ELISA read-out). The class given is cell-based, human. Particulars: Homo sapiens. The essentials: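 THP-1 cells differentiated with PMA (5 ng/mL, 40 h), primed in serum-free medium with 25 ng/mL LPS for 2 h, treated with compounds 1 h (0.5% DMSO), then stimulated with nigericin for 2 h at 37 °C. Supernatant IL-1β measured by ELISA; responses normalized to LPS+5 μM nigericin and LPS-only controls.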

The mark [1] stands for this setting: THP-1, IL-1β secretion, PMA-differentiated THP-1 cells, LPS then nigericin stimulation, ELISA read at 450 nm, read-out: Activity.
Where [2] appears, read: THP-1, Table 4, IL-1β secretion, LPS/nigericin-stimulated THP-1 cells, read-out: IC50.

For `O=C(CN1CC2(CC2)c2cc(Br)ccc2C1=O)NC1CCCC(O)C1` (centres unmarked) [Example 58, 2-(6-bromo-1-oxo-spiro[3H-isoquinoline-4,1′-cyclopropane]-2-yl)-N-(3-hydroxycyclohexyl)acetamide], the IC50 runs as follows: under setting [1], less than 10 µM; under setting [2], 3.09 µM.

Consider `CN1CC(NC(=O)CN2CC3(CC3)c3cc(Br)ccc3C2=O)CC1=O` (centres unmarked) [Example 59, 2-(6-bromo-1-oxo-spiro[3H-isoquinoline-4,1′-cyclopropane]-2-yl)-N-(1-methyl-5-oxo-pyrrolidin-3-yl)acetamide], for which the IC50 runs as follows: under setting [1], greater than 15 µM; under setting [2], 18.3 µM.

In the case of `O=C(CN1CC2(CC2)c2cc(Br)ccc2C1=O)NC1CC(OC(F)F)C1` (centres unmarked) [Example 60, 2-(6-bromo-1-oxo-spiro[3H-isoquinoline-4,1′-cyclopropane]-2-yl)-N-[3-(difluoromethoxy)cyclobutyl]acetamide], the IC50 under setting [1] is less than 10 µM and the IC50 under setting [2] stood at 8.68 µM.

Consider `O=C(CN1CC2(CC2)c2cc(Br)ccc2C1=O)NC1CC2(COC2)C1` [Example 61, 2-(6-bromo-1-oxo-spiro[3H-isoquinoline-4,1′-cyclopropane]-2-yl)-N-(2-oxaspiro[3.3]heptan-6-yl)acetamide], for which the IC50 under setting [1] is less than 10 µM and the IC50 under setting [2] amounted to 2.75 µM.

With `CCN1CC(NC(=O)CN2CC3(CC3)c3cc(Br)ccc3C2=O)CCC1=O` (centres unmarked) [Example 62, 2-(6-bromo-1-oxo-spiro[3H-isoquinoline-4,1′-cyclopropane]-2-yl)-N-(1-ethyl-6-oxo-3-piperidyl)acetamide], the IC50 by setting is: under setting [1], 10 to 15 µM; under setting [2], 12.1 µM.

Consider `CC(C)(O)CNC(=O)CN1CC2(CC2)c2cc(Br)ccc2C1=O` [Example 63, 2-(6-bromo-1-oxo-spiro[3H-isoquinoline-4,1′-cyclopropane]-2-yl)-N-(2-hydroxy-2-methyl-propyl)acetamide], for which the IC50 reads like this: under setting [1], greater than 15 µM; under setting [2], 16.5 µM.

For the molecule `O=C(CN1CC2(CC2)c2cc(Br)ccc2C1=O)N[C@H]1C[C@@H](CO)C1` [Example 64, 2-(6-bromo-1-oxo-spiro[3H-isoquinoline-4,1′-cyclopropane]-2-yl)-N-[cis-3-(hydroxymethyl)cyclobutyl]acetamide], the IC50 was less than 10 µM under setting [1] and 6.4 µM under setting [2].

In the case of `N#CC1CC(NC(=O)CN2CC3(CC3)c3cc(Br)ccc3C2=O)C1` (centres unmarked) [Example 65, 2-(6-bromo-1-oxo-spiro[3H-isoquinoline-4,1′-cyclopropane]-2-yl)-N-(3-cyanocyclobutyl)acetamide], the IC50 was less than 10 µM under setting [1] and 6.86 µM under setting [2].

With `CC(C)(O)C1CCN(C(=O)CN2CC3(CC3)c3cc(Br)ccc3C2=O)C1` (centres unmarked) [Example 66, 6-bromo-2-[2-[3-(1-hydroxy-1-methyl-ethyl)pyrrolidin-1-yl]-2-oxo-ethyl]spiro[3H-isoquinoline-4,1′-cyclopropane]-1-one], the IC50 runs as follows: under setting [1], greater than 15 µM; under setting [2], 26.2 µM.

Regarding `O=C(CN1CC2(CC2)c2cc(Br)ccc2C1=O)NC1CC(F)(F)C1` [Example 67, 2-(6-bromo-1-oxo-spiro[3H-isoquinoline-4,1′-cyclopropane]-2-yl)-N-(3,3-difluorocyclobutyl)acetamide], the IC50 runs as follows: under setting [1], less than 10 µM; under setting [2], 8.75 µM.

For the molecule `CC1(O)CCN(C(=O)CN2CC3(CC3)c3cc(Br)ccc3C2=O)C1` (centres unmarked) [Example 68, 6-bromo-2-[2-(3-hydroxy-3-methyl-pyrrolidin-1-yl)-2-oxo-ethyl]spiro[3H-isoquinoline-4,1′-cyclopropane]-1-one], the IC50 by setting is: under setting [1], greater than 15 µM; under setting [2], 28.6 µM.

For `CC1CN(CC(=O)NC2CC(C)(O)C2)C(=O)c2ccc(Br)cc21` (stereo not drawn) [Example 69, 2-(6-bromo-4-methyl-1-oxo-3,4-dihydroisoquinolin-2-yl)-N-(cis-3-hydroxy-3-methyl-cyclobutyl)acetamide], the IC50 under setting [1] is less than 10 µM and the IC50 under setting [2] was 0.643 µM.

As for `O=C(CN1CC2(CC2)c2cc(Br)ccc2C1=O)N[C@@H]1CCCN(C2CCC2)C1` [Example 70, 2-(6-bromo-1-oxo-spiro[3H-isoquinoline-4,1′-cyclopropane]-2-yl)-N-[(3R)-1-cyclobutyl-3-piperidyl]acetamide], the IC50 runs as follows: under setting [1], less than 10 µM; under setting [2], 0.191 µM.

As for `COC(=O)N1CCC[C@@H](NC(=O)CN2CC3(CC3)c3cc(Br)ccc3C2=O)C1` [Example 71, methyl (3R)-3-[[2-(6-bromo-1-oxo-spiro[3H-isoquinoline-4,1′-cyclopropane]-2-yl)acetyl]amino]piperidine-1-carboxylate], the IC50 was less than 10 µM under setting [1] and 6.96 µM under setting [2].

For `N#Cc1ccc(NC(=O)CN2CC3(CC3)c3cc(Br)ccc3C2=O)nc1` [Example 72, 2-(6-bromo-1-oxospiro[3H-isoquinoline-4,1′-cyclopropane]-2-yl)-N-(5-cyanopyridin-2-yl)acetamide], the IC50 by setting is: under setting [1], less than 10 µM; under setting [2], 0.511 µM.

For the molecule `Cn1cc(NC(=O)CN2CC3(CC3)c3cc(Br)ccc3C2=O)ccc1=O` [Example 73, 2-(6-bromo-1-oxo-spiro[3H-isoquinoline-4,1′-cyclopropane]-2-yl)-N-(1-methyl-6-oxo-3-pyridyl)acetamide], the IC50 is 10 to 15 µM under setting [1] and 11.5 µM under setting [2].

For the molecule `CC1CN(CC(=O)Nc2ncccn2)C(=O)c2ccc(Br)cc21` (centres unmarked) [Example 74, 2-(6-bromo-4-methyl-1-oxo-3,4-dihydroisoquinolin-2-yl)-N-pyrimidin-2-yl-acetamide], the IC50 is, setting by setting: under setting [1], less than 10 µM; under setting [2], 1.76 µM.

On to `O=C(CN1CC2(CCCC2)c2cc(Br)ccc2C1=O)Nc1ncccn1` [Example 75, 2-(6-bromo-1-oxo-spiro[3H-isoquinoline-4,1′-cyclopentane]-2-yl)-N-pyrimidin-2-yl-acetamide], for which the IC50 by setting is: under setting [1], 10 to 15 µM; under setting [2], 12.3 µM.

Take `CC1N(CC(=O)Nc2ncccn2)C(=O)c2ccc(C(F)(F)F)cc2C12CC2` (centres unmarked) [Example 76, 2-[3-methyl-1-oxo-6-(trifluoromethyl)spiro[3H-isoquinoline-4,1′-cyclopropane]-2-yl]-N-pyrimidin-2-ylacetamide]: the IC50 is, setting by setting: under setting [1], greater than 15 µM; under setting [2], 16.2 µM.

As for `O=C1c2ccc(Br)cc2C2(CC2)CN1C1(C(=O)Nc2ncccn2)CC1` [Example 77, 1-(6-bromo-1-oxospiro[3H-isoquinoline-4,1′-cyclopropane]-2-yl)-N-pyrimidin-2-ylcyclopropane-1-carboxamide], the IC50 under setting [1] was less than 10 µM and the IC50 under setting [2] was 3.72 µM.

Turning to `O=C(CN1C[C@]2(C[C@H]2F)c2cc(Br)ccc2C1=O)Nc1ncc(F)cn1` [Example 79, 2-[(2′R,4S)-6-bromo-2′-fluoro-1-oxospiro[3H-isoquinoline-4,1′-cyclopropane]-2-yl]-N-(5-fluoropyrimidin-2-yl)acetamide], the IC50 reads like this: under setting [1], less than 10 µM; under setting [2], 0.015 µM.

Take `O=C(CN1CC2(CC23CC3)c2cc(Br)ccc2C1=O)Nc1ncc(F)cn1` (centres unmarked) [Example 81, N-(5-fluoropyrimidin-2-yl)-2-(6-bromo-1-oxospiro[3H-isoquinoline-4,1′-(spiro[2.2]pentan-1-yl)]-2-yl)acetamide]: the IC50 by setting is: under setting [1], less than 10 µM; under setting [2], 2.56 µM.
